# US20110301153A1, “METHODS OF TREATING CANCER” (The Trustees of the University of Pennsylvania, priority 2008, published 2011)
# Assays:
# Assay type in all cases: cell-based, human
# shCTRL SF188 cells = experiment: AOA treatment of SF188 cells transduced with control shRNA, viability by trypan blue dye exclusion; conditions: P<0.01
# Method: (§1) (A) Myc-suppressed SF188 cells are resistant to glutamine starvation. shMYC and shCTRL SF188 cells, described in FIG. 3B, were allowed to plate in the presence of glutamine and then cultured in the absence of glutamine. Cell viability was determined at the time points shown by trypan blue dye exclusion. The data points shown represent the mean±SD of triplicate samples. (B) Myc-suppressed SF188 cells are resistant to an inhibitor of glutaminolysis. shMYC and shCTRL SF188 cells, described in FIG. 3B, were allowed to plate in the presence of glutamine and then were treated with 500 μM aminooxyacetate (AOA). Cell viability was determined at the time points shown by trypan blue dye exclusion. AOA-treated shCTRL cells were also treated with 7 mM dimethyl α-ketoglutarate (AOA+α-ketoglutarate). The data points shown represent the mean±SD of triplicate samples.
# (§2) Lentivirus was packaged in 293T cells co-transfected with pLKO.1-puro c-Myc or Luciferase-control shRNA plasmid (Sigma) in addition to the pVSV-G and pCMVdelta8.2 helper plasmids using lipofectamine 2000 (Sigma). […]
# (§3) SF188 cells were treated with AOA (Sigma) at doses ranging from 500 nM-500 μM and viability was assessed 24 h post-treatment. […] After allowing to plate overnight, cells were treated with 500 μM for 24 h, and then viability was assessed using trypan blue dye exclusion.
# shMYC SF188 cells = experiment: AOA treatment of SF188 cells transduced with MYC-shRNA, viability by trypan blue dye exclusion; conditions: 500 μM AOA, 24 h, P<0.01
# Method: as §1, §2, §3
# SF188 cells [1] = experiment: AOA dose-finding, viability of SF188 cells; conditions: doses 500 nM-500 μM, viability 24 h post-treatment
# Method: SF188 cells (UC Brain Tumor Research Center, SF, CA) and SV40-immortalized MEF stably transfected with MycER (a gift from Drs. A T Tikhonenko and R. A. Amaravadi of University of Pennsylvania, Philadelphia, Pa.) were cultured in DMEM (Invitrogen), 10% FBS (Gemini Biosystems), 100 units/ml Penicillin, 100 ug/ml Streptomycin, 25 mM glucose, and 6 mM L-glutamine at 37° C. in a 5% CO2 incubator. To avoid depleting […], all experiments were carried out under subconfluent conditions. For glutamine starvation experiments, DMEM without glutamine (Invitrogen) was supplemented with 10% dialyzed FBS (Gemini Biosystems). For metabolic tracing experiments, DMEM without glutamine and with 10% dialyzed FBS was supplemented with either L-glutamine that was unenriched or with L-[U-^13C5]glutamine (Isotec), [U-^14C5]glutamine (GE Amersham), and [γ-^15N]glutamine (Cambridge Isotope Laboratories). DMEM without glucose (Sigma) was supplemented with [U-^14C6]glucose (Sigma). To activate MycER, cells were incubated with 200 nM 4-hydroxytamoxifen for 24 hours.
# as §3, with “post-treatment. Moreadith R W & Lehninger A L (1984) J. Biol. Chem. 259(10):6215-6221.” for “post-treatment.”
# [2] = tested on: SF188 cells stably expressing Bcl-xL; experiment: Akt/PI3K inhibitor treatment, media metabolite analysis (glucose, lactate, glutamine, ammonia); conditions: 8 hours, medium analysed
# Method: SF188 cells stably expressing Bcl-xL were treated with AktiVIII at doses ranging from 0-20 μM. Medium was collected and analyzed for glucose, lactate, glutamine, and ammonia. The rates shown were calculated from the difference in metabolite concentration between the medium at the time point shown and fresh medium. The data points presented are the mean±SD of triplicate samples.
# SF188 cells stably expressing Bcl-xL were plated at a density of 4×10^5 cells in E-well plate format, and incubated in DMEM with 10% FCS for 36 hours prior to treatment with AKT inhibitor VIII (Calbiochem) at 0, 0.1, 2, 5, and 10 μM concentrations in triplicate. After 8 hours, medium samples were collected for metabolite analysis, and viable cells were counted using trypan blue exclusion.
# Media glucose, glutamine, lactate, and ammonia concentrations were analyzed using the Nova Biomedical Flex Analyzer (Waltham, Mass.).
# SF188 cells [3] = experiment: Glutamine starvation of SF188 cells with alpha-ketoglutarate replacement, viability by trypan blue dye exclusion; conditions: glutamine replaced with 7 mM dimethyl α-ketoglutarate, 25 mM glucose in medium
# Method: FIG. 1 concerns glutamine catabolism in the human glioma line SF188. (A) Protein synthesis is a minor fate of glutamine carbon. SF188 cells were cultured in medium supplemented with 0.01% [^14C-U5]glutamine relative to unenriched glutamine for 4 h. [^14C-U5]glutamine in SSA precipitated protein (striped bar) and total glutamine consumed from the medium (grey bar) are presented as the mean±standard deviation (SD) of four independent experiments. (B) The requirement for glutamine can be satisfied by alpha-ketoglutarate. SF188 cells were allowed to plate in complete medium and then cultured in either glutamine-depleted medium (−glutamine), complete medium (+glutamine), or glutamine-depleted medium supplemented with 7 mM dimethyl α-ketoglutarate (−glutamine +α-ketoglutarate). Cell viability was determined at the time points shown by trypan blue dye exclusion. The data presented are the mean±SD of triplicate samples. Representative data from one of three independent experiments are shown.
# SF188 cells (UC Brain Tumor Research Center, SF, CA) and SV40-immortalized MEF stably transfected with MycER (a gift from Drs. A T Tikhonenko and R. A. Amaravadi of University of Pennsylvania, Philadelphia, Pa.) were cultured in DMEM (Invitrogen), 10% FBS (Gemini Biosystems), 100 units/ml Penicillin, 100 ug/ml Streptomycin, 25 mM glucose, and 6 mM L-glutamine at 37° C. in a 5% CO2 incubator. […]
structure (smiles),measurement,setting,value
"NOCC(=O)O [AOA, aminooxyacetate]",cell viability / death of cells transduced with control shRNA,"shCTRL SF188 cells; 500 μM AOA, 24 h, trypan blue dye exclusion",selectively induced the death
same,cell viability of cells transduced with MYC-shRNA,shMYC SF188 cells,without affecting the viability
same,lowest dose that killed a significant fraction of the cells,SF188 cells [1],500 µM
O=c1[nH]c2ccccc2n1C1CCN(Cc2ccc(-c3nc4cc5[nH]cnc5cc4nc3-c3ccccc3)cc2)CC1 [AKT inhibitor VIII],ammonia production,[2],neither glutamine metabolism nor ammonia production was inhibited
same,glucose metabolism (consumption),[2],suppressed glucose metabolism and lactate production in a dose-dependent fashion
same,glutamine metabolism (consumption),[2],neither glutamine metabolism nor ammonia production was inhibited
same,lactate production,[2],suppressed glucose metabolism and lactate production in a dose-dependent fashion
COC(=O)CCC(=O)C(=O)OC [dimethyl α-ketoglutarate],cell death in glutamine-deficient medium,SF188 cells [3],suppressed the cell death
same,reversal of AOA-induced toxicity (death),shCTRL SF188 cells; 7 mM dimethyl α-ketoglutarate added to AOA-treated SF188 parental and control transduced cells,completely suppressed the death
